Measured values from US9993459B2, “Selective HDAC6 inhibitors and uses thereof” (Universiteit Gent, priority 2015, dated 2018).

Tests used:
Assay type in all cases: biochemical
[1] = molecular target: HDAC4 (Homo sapiens, UniProt P56524); assay: In vitro HDAC isozyme selectivity screen: HDAC4; conditions: for IC50: Table 2
[2] = molecular target: HDAC9 (Homo sapiens, UniProt Q9UKV0); assay: In vitro HDAC isozyme selectivity screen: HDAC9; conditions: for IC50: Table 2
[3] = molecular target: T1, HDAC7 (Homo sapiens, UniProt Q8WUI4); assay: In vitro HDAC isozyme selectivity screen: HDAC7; conditions: for IC50: Table 2
T1 sequence (Q8WUI4 1-952): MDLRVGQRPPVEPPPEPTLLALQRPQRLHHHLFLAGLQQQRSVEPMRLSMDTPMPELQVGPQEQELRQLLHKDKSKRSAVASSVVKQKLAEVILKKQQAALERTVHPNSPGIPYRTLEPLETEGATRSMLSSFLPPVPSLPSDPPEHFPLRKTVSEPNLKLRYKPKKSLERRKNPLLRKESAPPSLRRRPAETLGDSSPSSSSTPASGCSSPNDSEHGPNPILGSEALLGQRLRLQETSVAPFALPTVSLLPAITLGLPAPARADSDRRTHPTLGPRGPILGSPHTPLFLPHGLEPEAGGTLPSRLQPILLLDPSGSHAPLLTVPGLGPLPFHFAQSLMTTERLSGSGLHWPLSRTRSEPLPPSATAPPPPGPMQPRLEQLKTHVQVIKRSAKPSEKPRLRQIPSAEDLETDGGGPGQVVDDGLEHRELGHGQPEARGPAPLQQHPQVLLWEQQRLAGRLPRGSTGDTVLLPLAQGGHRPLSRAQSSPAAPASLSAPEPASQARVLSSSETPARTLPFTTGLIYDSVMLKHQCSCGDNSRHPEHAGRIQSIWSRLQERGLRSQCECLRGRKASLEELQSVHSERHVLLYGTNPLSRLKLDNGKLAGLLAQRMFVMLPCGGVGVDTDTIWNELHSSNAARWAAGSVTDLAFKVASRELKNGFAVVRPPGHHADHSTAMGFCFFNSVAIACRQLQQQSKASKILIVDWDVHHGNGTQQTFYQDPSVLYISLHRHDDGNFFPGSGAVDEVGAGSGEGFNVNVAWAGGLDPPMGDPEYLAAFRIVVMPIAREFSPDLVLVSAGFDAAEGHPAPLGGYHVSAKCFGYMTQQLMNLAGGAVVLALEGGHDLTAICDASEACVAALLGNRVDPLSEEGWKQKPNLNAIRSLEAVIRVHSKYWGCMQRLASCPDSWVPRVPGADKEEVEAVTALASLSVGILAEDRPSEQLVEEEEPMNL

[4] = molecular target: HDAC5 (Homo sapiens, UniProt Q9UQL6); assay: In vitro HDAC isozyme selectivity screen: HDAC5; conditions: for IC50: Table 2
Sequence of HDAC5 (Q9UQL6 whole entry, species assumed): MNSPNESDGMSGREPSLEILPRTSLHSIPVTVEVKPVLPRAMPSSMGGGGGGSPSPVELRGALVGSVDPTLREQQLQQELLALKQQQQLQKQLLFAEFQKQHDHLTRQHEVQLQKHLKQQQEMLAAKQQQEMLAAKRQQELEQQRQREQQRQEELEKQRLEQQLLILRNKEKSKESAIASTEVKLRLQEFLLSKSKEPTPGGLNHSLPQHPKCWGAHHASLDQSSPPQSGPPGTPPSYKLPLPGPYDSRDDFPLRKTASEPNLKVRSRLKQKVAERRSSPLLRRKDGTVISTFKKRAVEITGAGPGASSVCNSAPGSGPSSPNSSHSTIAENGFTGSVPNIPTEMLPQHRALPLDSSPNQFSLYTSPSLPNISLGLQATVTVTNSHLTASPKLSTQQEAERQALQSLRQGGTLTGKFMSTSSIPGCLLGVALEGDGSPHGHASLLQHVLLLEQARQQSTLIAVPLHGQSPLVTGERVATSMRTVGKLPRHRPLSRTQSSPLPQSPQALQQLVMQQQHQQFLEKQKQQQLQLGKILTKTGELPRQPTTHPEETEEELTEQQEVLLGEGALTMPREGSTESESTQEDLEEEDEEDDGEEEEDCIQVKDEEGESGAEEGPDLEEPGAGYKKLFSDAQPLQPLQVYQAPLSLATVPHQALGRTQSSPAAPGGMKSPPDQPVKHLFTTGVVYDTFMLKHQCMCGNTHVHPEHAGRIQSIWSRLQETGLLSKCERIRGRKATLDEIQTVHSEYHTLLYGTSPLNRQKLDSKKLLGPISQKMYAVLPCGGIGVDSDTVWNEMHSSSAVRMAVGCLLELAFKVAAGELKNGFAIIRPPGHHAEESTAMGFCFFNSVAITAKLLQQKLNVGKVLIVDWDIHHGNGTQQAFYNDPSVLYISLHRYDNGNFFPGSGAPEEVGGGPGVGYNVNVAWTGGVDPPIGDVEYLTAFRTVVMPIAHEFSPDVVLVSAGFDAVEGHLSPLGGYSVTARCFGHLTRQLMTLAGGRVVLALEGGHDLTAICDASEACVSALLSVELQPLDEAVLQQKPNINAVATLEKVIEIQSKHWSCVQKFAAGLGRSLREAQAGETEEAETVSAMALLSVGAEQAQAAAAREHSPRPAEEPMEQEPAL

[5] = molecular target: T2, HDAC11 (Homo sapiens, UniProt Q96DB2); assay: In vitro HDAC isozyme selectivity screen: HDAC11; conditions: Table 2
T2 sequence (Q96DB2 1-347): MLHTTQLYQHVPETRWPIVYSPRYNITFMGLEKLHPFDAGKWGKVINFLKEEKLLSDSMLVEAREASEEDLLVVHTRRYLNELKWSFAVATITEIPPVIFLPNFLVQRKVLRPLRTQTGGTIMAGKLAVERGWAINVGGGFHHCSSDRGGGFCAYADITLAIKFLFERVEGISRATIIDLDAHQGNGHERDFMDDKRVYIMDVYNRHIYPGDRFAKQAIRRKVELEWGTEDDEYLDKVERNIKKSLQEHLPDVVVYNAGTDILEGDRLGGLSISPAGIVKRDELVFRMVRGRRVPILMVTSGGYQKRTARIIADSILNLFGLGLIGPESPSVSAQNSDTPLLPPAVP

[6] = molecular target: T3, HDAC8 (Homo sapiens, UniProt Q9BY41); assay: In vitro HDAC isozyme selectivity screen: HDAC8; conditions: for IC50: Table 2
T3 sequence (Q9BY41 1-377): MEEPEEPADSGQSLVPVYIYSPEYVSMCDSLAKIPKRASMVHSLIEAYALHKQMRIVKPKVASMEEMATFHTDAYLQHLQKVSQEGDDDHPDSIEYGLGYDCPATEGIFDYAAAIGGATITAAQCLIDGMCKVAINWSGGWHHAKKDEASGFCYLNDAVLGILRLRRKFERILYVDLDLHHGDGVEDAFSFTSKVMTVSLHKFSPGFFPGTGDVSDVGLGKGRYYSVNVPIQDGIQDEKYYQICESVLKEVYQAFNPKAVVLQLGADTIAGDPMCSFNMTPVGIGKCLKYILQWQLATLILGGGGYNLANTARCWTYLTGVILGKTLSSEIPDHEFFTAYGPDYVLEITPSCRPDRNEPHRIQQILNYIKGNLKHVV

Sequence of HDAC9 (Q9UKV0 whole entry, species assumed): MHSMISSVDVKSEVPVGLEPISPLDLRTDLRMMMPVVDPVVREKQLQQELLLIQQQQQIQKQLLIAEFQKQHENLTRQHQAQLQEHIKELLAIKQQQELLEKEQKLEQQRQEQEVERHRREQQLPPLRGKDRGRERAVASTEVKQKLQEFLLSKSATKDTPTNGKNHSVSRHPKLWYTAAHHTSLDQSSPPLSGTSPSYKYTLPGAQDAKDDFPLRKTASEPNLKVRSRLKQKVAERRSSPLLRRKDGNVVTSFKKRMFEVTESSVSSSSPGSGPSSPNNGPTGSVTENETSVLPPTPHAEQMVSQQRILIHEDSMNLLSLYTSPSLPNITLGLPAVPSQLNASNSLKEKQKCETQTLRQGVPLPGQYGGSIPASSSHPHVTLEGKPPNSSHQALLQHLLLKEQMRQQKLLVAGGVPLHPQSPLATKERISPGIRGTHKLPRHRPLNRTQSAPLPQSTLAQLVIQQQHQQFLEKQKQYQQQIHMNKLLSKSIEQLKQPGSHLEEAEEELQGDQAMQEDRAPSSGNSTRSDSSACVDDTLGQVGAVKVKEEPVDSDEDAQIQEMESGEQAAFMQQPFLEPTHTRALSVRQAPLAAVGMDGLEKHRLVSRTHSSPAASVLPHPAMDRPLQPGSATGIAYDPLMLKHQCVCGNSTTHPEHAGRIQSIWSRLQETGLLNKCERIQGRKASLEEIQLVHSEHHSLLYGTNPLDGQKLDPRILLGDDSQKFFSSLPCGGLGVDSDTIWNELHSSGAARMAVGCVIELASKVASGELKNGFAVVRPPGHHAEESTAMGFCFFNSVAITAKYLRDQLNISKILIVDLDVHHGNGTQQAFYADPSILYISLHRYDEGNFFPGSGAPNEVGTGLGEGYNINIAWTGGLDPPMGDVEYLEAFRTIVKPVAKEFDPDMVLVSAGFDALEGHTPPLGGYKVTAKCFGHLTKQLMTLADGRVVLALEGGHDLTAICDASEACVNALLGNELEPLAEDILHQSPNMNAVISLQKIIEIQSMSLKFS
Sequence of HDAC4 (P56524 whole entry, species assumed): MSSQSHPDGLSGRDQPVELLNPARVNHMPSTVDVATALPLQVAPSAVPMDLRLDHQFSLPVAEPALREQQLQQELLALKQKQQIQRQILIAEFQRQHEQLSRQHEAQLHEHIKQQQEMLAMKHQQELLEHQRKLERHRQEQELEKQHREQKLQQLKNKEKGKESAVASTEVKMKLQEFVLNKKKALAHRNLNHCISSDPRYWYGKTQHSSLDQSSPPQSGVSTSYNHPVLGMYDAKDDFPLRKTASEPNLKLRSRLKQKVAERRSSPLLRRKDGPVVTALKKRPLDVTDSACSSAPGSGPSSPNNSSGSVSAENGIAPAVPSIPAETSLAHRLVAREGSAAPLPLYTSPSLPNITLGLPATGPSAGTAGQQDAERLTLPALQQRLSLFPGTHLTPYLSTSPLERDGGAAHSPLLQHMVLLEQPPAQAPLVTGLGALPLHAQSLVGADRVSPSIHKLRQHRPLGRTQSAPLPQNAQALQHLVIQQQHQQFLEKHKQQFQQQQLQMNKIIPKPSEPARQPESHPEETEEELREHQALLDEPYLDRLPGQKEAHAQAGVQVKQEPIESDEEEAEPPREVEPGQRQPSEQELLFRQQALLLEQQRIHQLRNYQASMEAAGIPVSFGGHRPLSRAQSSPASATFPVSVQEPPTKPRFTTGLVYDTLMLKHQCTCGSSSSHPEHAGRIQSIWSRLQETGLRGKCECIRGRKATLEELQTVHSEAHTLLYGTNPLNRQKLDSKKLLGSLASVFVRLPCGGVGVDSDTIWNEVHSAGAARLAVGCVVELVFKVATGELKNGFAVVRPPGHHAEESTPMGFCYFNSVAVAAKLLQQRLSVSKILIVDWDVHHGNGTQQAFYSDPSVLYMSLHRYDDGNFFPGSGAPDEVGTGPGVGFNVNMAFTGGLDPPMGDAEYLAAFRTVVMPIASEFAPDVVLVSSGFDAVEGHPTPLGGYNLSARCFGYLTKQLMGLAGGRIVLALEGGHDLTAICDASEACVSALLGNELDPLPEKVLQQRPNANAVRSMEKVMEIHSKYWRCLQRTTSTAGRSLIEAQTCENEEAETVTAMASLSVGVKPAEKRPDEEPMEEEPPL

Compound	IC50 [1]	IC50 [2]	IC50 [3]	IC50 [4]	IC50 [5]	IC50 [6]	effect at 100 μM, HDAC4 ([1]; 100 μM)	effect at 100 μM, HDAC9 ([2]; 100 μM)	effect at 100 μM, HDAC7 ([3]; 100 μM)	effect at 100 μM, HDAC5 ([4]; 100 μM)	selectivity for HDAC6 over HDAC8 ([6]; HDAC8 vs HDAC6 IC50)
O=C(NO)c1ccc(NCc2csc3cc(Br)ccc23)cc1 [Compound 13a, 6-bromo-3-[(4-hydroxycarbamoylphenyl)aminomethyl]-benzothiophene]	31 µM	25 µM	12 µM	45 µM	1.2 µM	1.9 µM	–	–	–	–	–
O=C(NO)c1ccc(NCc2csc3ccc(Br)cc23)cc1 [Compound 7b, 5-bromo-3-[(4-hydroxycarbamoylphenyl)aminomethyl]-benzothiophene]	> 100 µM	> 100 µM	–	> 100 µM	15 µM	2.1 µM	less than 50%	less than 50%	less than 50%	less than 50%	57 fold
O=C(NO)c1ccc(NCc2csc3ccccc23)cc1 [Compound 7a, 3-[(4-hydroxycarbamoylphenyl)aminomethyl]benzothiophene]	10 µM	7.1 µM	5.2 µM	17 µM	31 µM	1.4 µM	–	–	–	–	–
